Some test systems named below: HL-60(TB) leukemia; OVCAR-3 ovarian; NCI/ADR-RES ovarian; K-562 leukemia; A498 renal; HT29 colon; SR leukemia; NCI-H522 lung; SNB-19 CNS; CCRF-CEM leukemia; SK-MEL-28 melanoma; UACC-257 melanoma; T-47D breast; PC-3 prostate; MOLT-4 leukemia; DU-145 prostate; OVCAR-4 ovarian; SK-OV-3 ovarian; SW-620 colon.
Test in all cases: DTP human tumour cell line panel, 48 h

By TGI is commonly meant the concentration at which net growth stops. By GI50 is commonly meant the concentration giving 50% growth inhibition.

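Cells were grown in 96-well plates and exposed to each compound for 48 hours at five concentrations; endpoints were interpolated linearly between bracketing concentrations, or set to the highest concentration if not reached. Abbreviation: GI50, concentration required for 50% inhibition of growth. Definition used: TGI = concentration required for complete inhibition of growth.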

As for `Cc1ccc(S(=O)(=O)N/N=C2\CCC3(O)CC2(C)CCC2C3CC2(C)C)cc1` (centres undefined), the TGI in the test on HL-60(TB) leukemia, in the test with OVCAR-3 ovarian, in the test with NCI/ADR-RES ovarian, with K-562 leukemia, in the test on A498 renal and with HT29 colon was over 100 µM each time. The TGI in the test with SR leukemia was over 100 µM; in the test with NCI-H522 lung, 52.9 µM; in the test on SNB-19 CNS, over 100 µM; with CCRF-CEM leukemia it was over 100 µM; with SK-MEL-28 melanoma it was over 100 µM; with UACC-257 melanoma, over 100 µM. Further, the TGI with T-47D breast was over 100 µM; in the test on PC-3 prostate, 66.2 µM; in the test with MOLT-4 leukemia, over 100 µM; in the test with DU-145 prostate, over 100 µM; in the test on OVCAR-4 ovarian, over 100 µM; in the test on SK-OV-3 ovarian it was over 100 µM. The TGI in the test with SW-620 colon is over 100 µM.

Take `CC(NC1=CC(=O)c2cccnc2C1=O)C(O)c1ccccc1` (centres undefined): the TGI in the test with HL-60(TB) leukemia worked out at 6.69 µM; in the test on OVCAR-3 ovarian, 6 µM; with NCI/ADR-RES ovarian, 24.2 µM; with K-562 leukemia it was 5.93 µM; with A498 renal, 8.82 µM; in the test with HT29 colon, 9.45 µM. The TGI in the test on SR leukemia was over 23.1 µM; with NCI-H522 lung, 3.57 µM; in the test with SNB-19 CNS, 5.66 µM; with CCRF-CEM leukemia it was 25.5 µM; in the test on SK-MEL-28 melanoma, 3.1 µM; in the test on UACC-257 melanoma, 2.84 µM. In addition, the TGI turned out to be 18.7 µM in the test with T-47D breast; 10.6 µM in the test on PC-3 prostate; 22.4 µM in the test on MOLT-4 leukemia; 3.65 µM with DU-145 prostate; 11.1 µM in the test on OVCAR-4 ovarian; 23.4 µM with SK-OV-3 ovarian. In the test with SW-620 colon, the TGI worked out at 3.89 µM.

On to `CCOC(=O)CCC(NC(=O)c1ccc(Oc2nc3c(N)cc(C(F)(F)F)cc3nc2-c2ccccc2)cc1)C(=O)OCC` (centres undefined), for which the TGI in the test on HL-60(TB) leukemia was over 100 µM; with OVCAR-3 ovarian, over 30.9 µM; in the test on NCI/ADR-RES ovarian it was over 100 µM; with K-562 leukemia, over 100 µM; with A498 renal, over 94.3 µM; in the test on HT29 colon, over 100 µM. Further, the TGI in the test with SR leukemia is over 100 µM; in the test on NCI-H522 lung, 45.4 µM; in the test with SNB-19 CNS, over 80.9 µM; in the test with CCRF-CEM leukemia it was over 100 µM; in the test on SK-MEL-28 melanoma, over 100 µM; with UACC-257 melanoma, over 31.6 µM. The TGI was over 100 µM in the test on T-47D breast; over 79.4 µM in the test with PC-3 prostate; over 100 µM with MOLT-4 leukemia; over 64.8 µM in the test on DU-145 prostate; over 100 µM with OVCAR-4 ovarian; over 58.6 µM with SK-OV-3 ovarian. Moreover, in the test on SW-620 colon, the TGI is over 100 µM.

With `Nc1nc(Cl)c2ncn(Cc3cccc(CCl)c3)c2n1`, the TGI was over 36.1 µM in the test with HL-60(TB) leukemia; 3.74 µM with OVCAR-3 ovarian; 11.5 µM in the test on NCI/ADR-RES ovarian; over 51 µM in the test on K-562 leukemia; 50.8 µM in the test with A498 renal; 19.2 µM in the test with HT29 colon. Also, the TGI in the test on SR leukemia is over 28.3 µM; in the test on NCI-H522 lung, 7.03 µM; in the test on SNB-19 CNS it was 20.6 µM; in the test with CCRF-CEM leukemia, over 30.7 µM; in the test on SK-MEL-28 melanoma, 23.9 µM; with UACC-257 melanoma, 20.7 µM. The TGI in the test on T-47D breast was 42.1 µM; in the test on PC-3 prostate, 26.4 µM; in the test on MOLT-4 leukemia it was over 30.8 µM; in the test on DU-145 prostate, 18.6 µM; in the test with OVCAR-4 ovarian it was 5.07 µM; in the test on SK-OV-3 ovarian, 50.8 µM. The TGI in the test on SW-620 colon was 11.9 µM.

For `Cc1nc2cc3ccccc3cc2[nH]c1=O`, the TGI in the test on HL-60(TB) leukemia, in the test on OVCAR-3 ovarian, with NCI/ADR-RES ovarian, in the test on K-562 leukemia, with A498 renal and with HT29 colon was over 100 µM each time. Also, the TGI in the test on SR leukemia, in the test with NCI-H522 lung, in the test on SNB-19 CNS, in the test on CCRF-CEM leukemia, in the test on SK-MEL-28 melanoma and in the test with UACC-257 melanoma was over 100 µM throughout. Moreover, the total growth inhibition concentration (TGI) with T-47D breast, with PC-3 prostate, with MOLT-4 leukemia, with DU-145 prostate, with OVCAR-4 ovarian and in the test on SK-OV-3 ovarian was over 100 µM in each case. This compound came in with a TGI in the test on SW-620 colon of over 100 µM.

Consider `COc1ccc(CNc2nc(NCc3ccc(OC)cc3)nc(NC3CCCC3)n2)cc1`, for which the TGI in the test on HL-60(TB) leukemia was over 28.3 µM; in the test with OVCAR-3 ovarian, over 23 µM; in the test with NCI/ADR-RES ovarian, 13.4 µM; with K-562 leukemia it was over 24.7 µM; in the test on A498 renal it was over 100 µM; in the test with HT29 colon, 13.6 µM. Also, the TGI in the test with SR leukemia was over 100 µM; in the test on NCI-H522 lung, over 19.9 µM; in the test with SNB-19 CNS it was over 100 µM; with CCRF-CEM leukemia, over 100 µM; with SK-MEL-28 melanoma, over 100 µM; with UACC-257 melanoma it was over 100 µM. The TGI with T-47D breast was over 100 µM; in the test with PC-3 prostate it was over 100 µM; in the test on MOLT-4 leukemia it was over 100 µM; with DU-145 prostate it was over 40.7 µM; in the test with OVCAR-4 ovarian it was over 100 µM; in the test with SK-OV-3 ovarian it was over 100 µM. The TGI in the test with SW-620 colon is over 100 µM. Further, in the test with A498 renal, the GI50 is 62.1 µM.

For `O=C1OCC(c2ccc(Cl)cc2)=C1Cl`, the TGI in the test on HL-60(TB) leukemia is 48.5 µM; in the test with OVCAR-3 ovarian, 44.4 µM; with NCI/ADR-RES ovarian it was 55.8 µM; in the test on K-562 leukemia, 92.6 µM; with A498 renal it was over 100 µM; in the test with HT29 colon it was over 100 µM. The TGI with SR leukemia was 39.2 µM; in the test on NCI-H522 lung it was 35.9 µM; with SNB-19 CNS, over 100 µM; in the test on CCRF-CEM leukemia it was 75.6 µM; in the test on SK-MEL-28 melanoma it was over 100 µM; with UACC-257 melanoma, over 100 µM. For the same compound, the TGI is over 100 µM in the test with T-47D breast; 67.9 µM in the test with PC-3 prostate; over 100 µM with MOLT-4 leukemia; over 100 µM in the test with DU-145 prostate; over 100 µM with OVCAR-4 ovarian; over 100 µM in the test with SK-OV-3 ovarian. The TGI in the test on SW-620 colon worked out at 61.2 µM.

The values above are taken from PubChem BioAssay (NCI).
